{
  "source": "paper PMC7854383",
  "about": "“Cellular Uptake of Psychostimulants – Are High- and Low-Affinity Organic Cation Transporters Drug Traffickers?” (Frontiers in Pharmacology, 2021)",
  "molecules": {"B1": {"name": "OCT2 variant A270S (Homo sapiens) (protein)", "chain": "MPTTVDDVLEHGGEFHFFQKQMFFLLALLSATFAPIYVGIVFLGFTPDHRCRSPGVAELSLRCGWSPAEELNYTVPGPGPAGEASPRQCRRYEVDWNQSTFDCVDPLASLDTNRSRLPLGPCRDGWVYETPGSSIVTEFNLVCANSWMLDLFQSSVNVGFFIGSMSIGYIADRFGRKLCLLTTVLINAAAGVLMAISPTYTWMLIFRLIQGLVSKAGWLIGYILITEFVGRRYRRTVGIFYQVAYTVGLLVLAGVAYALPHWRWLQFTVSLPNFFFLLYYWCIPESPRWLISQNKNAEAMRIIKHIAKKNGKSLPASLQRLRLEEETGKKLNPSFLDLVRTPQIRKHTMILMYNWFTSSVLYQGLIMHMGLAGDNIYLDFFYSALVEFPAAFMIILTIDRIGRRYPWAASNMVAGAACLASVFIPGDLQWLKIIISCLGRMGITMAYEIVCLVNAELYPTFIRNLGVHICSSMCDIGGIITPFLVYRLTNIWLELPLMVFGVLGLVAGGLVLLLPETKGKALPETIEEAENMQRPRKNKEKMIYLQVQKLDIPLN"}},
  "key": {"OCT1 [1]": {"target": "T1, OCT1 (Homo sapiens, UniProt O15245)", "T1 sequence (O15245 1-554)": "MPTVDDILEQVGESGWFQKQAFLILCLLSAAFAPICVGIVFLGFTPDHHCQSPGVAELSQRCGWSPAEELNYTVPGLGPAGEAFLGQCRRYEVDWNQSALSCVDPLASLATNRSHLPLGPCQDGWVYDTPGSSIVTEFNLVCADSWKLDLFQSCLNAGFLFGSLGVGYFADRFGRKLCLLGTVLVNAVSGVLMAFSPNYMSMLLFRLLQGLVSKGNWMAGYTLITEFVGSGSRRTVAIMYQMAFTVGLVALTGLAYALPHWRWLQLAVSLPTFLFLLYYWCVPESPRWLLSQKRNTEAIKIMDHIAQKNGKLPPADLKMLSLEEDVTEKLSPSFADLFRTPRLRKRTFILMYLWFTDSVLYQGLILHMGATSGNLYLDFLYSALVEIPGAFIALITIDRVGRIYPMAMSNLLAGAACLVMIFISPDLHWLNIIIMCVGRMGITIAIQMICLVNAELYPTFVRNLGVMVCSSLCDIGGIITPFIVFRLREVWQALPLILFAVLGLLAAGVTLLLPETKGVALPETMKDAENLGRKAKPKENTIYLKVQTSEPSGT", "assay": "Inhibition of mescaline uptake by OCT1", "type": "in vitro ADME", "parameters": "expressed in transfected cells", "settings": "1 mM MPP^+; compared with empty vector-transfected cells"}, "NET": {"target": "NET (Homo sapiens, UniProt P23975)", "sequence (P23975 whole entry)": "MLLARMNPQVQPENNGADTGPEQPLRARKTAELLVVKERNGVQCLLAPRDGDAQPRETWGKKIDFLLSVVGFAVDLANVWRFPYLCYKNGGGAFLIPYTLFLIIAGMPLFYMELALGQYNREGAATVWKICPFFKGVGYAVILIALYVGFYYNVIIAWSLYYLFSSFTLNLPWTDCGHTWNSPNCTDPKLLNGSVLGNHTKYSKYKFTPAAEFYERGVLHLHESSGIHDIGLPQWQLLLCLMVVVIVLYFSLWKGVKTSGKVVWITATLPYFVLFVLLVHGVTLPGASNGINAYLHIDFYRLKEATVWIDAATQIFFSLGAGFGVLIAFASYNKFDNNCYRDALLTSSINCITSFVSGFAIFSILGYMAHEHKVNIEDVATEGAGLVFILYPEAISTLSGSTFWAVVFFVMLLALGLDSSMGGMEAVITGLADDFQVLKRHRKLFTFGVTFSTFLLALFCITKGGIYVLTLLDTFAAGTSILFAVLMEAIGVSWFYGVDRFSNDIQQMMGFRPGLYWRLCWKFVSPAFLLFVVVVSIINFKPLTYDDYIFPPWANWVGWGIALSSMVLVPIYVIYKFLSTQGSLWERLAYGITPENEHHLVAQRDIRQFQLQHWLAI", "assay": "Screening of cellular uptake at 1 µM, NET-overexpressing HEK293 cells over empty vector control cells", "settings": "2 min", "experimental": "(§3) The HEK293 cells were cultered in DMEM medium supplemented with 10% (v/v) fetal bovine serum as well as penicillin (100 U/ml) and streptomycin (100 μg/ml) obtained from Thermo Fisher Scientific (Darmstadt, Germany). Cells were seeded on 12-well plates coated with poly-D-lysine (Sigma-Aldrich, Taufkirchen, Germany) 48 h before the transport experiments and incubated at 37°C, 95% relative humidity, and 5% CO2. […] All cell lines were washed with 37°C HBSS+ and subsequently incubated with the pre-warmed substrate in HBSS+ at 37°C. The time points for measuring substrate uptake were 1 min for MATE2-K and 2 min for the other SLCs. […] The reaction was stopped by adding ice-cold HBSS+, and the cells were washed twice with ice-cold HBSS+ before lysis with 80% acetonitrile (LGC Standards, Wesel, Germany) including an internal standard. Subsequently, the intracellular substrate accumulation was determined using LC-MS/MS.\n(§4) Intracellular accumulation was measured by HPLC-MS/MS using a Shimadzu Nexera HPLC system with a LC-30AD pump, a SIL-30AC autosampler, a CTO-20AC column oven, and a CBM-20A controller (Shimadzu, Kyoto, Japan). […] Peak integration and quantification of the analytes was done using the Analyst software (Version 1.6.2, AB SCIEX, Darmstadt, Germany) and determined by simultaneous measurement of standard curves with known concentrations."}, "SERT": {"target": "SERT (Homo sapiens, UniProt P31645)", "sequence (P31645 whole entry)": "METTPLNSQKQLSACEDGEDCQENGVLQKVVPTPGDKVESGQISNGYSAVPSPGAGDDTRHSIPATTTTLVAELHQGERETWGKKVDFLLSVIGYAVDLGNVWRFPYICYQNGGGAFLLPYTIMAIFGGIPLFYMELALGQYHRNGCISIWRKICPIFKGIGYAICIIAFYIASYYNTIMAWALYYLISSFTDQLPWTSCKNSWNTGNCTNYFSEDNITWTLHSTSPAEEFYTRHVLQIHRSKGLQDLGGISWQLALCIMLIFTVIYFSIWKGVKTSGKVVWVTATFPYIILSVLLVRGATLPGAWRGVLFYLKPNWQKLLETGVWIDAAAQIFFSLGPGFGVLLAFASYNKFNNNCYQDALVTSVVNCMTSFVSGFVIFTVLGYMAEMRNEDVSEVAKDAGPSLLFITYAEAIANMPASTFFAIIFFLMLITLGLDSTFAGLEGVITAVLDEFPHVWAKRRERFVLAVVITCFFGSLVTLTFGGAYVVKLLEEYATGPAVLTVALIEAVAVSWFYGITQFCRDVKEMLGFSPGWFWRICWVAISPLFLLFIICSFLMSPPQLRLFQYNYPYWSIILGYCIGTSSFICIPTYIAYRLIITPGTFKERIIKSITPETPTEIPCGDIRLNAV", "assay": "Screening of cellular uptake at 1 µM, SERT-overexpressing HEK293 cells over empty vector control cells", "type": "in vitro ADME", "settings": "2 min"}, "OCT1*6 (M420del, C88R)": {"target": "T2, OCT1*6 (M420del, C88R) (Homo sapiens, UniProt O15245, C88R/DEL420-420)", "T2 sequence (O15245 with tags, fused parts or gaps C88R/DEL420-420)": "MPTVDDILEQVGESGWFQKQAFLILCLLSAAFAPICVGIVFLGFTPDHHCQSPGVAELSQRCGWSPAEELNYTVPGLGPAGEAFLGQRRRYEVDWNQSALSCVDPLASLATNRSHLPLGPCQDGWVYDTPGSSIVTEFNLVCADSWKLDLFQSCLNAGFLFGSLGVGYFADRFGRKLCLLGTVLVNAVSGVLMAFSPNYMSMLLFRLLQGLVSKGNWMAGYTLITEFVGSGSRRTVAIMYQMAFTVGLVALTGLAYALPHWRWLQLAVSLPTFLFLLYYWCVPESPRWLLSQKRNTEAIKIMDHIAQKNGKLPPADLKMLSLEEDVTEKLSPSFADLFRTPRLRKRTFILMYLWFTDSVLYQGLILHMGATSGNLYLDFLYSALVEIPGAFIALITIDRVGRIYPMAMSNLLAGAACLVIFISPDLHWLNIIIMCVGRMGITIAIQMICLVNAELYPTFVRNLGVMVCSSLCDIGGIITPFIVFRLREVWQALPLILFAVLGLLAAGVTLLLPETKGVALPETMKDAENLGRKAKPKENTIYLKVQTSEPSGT", "experimental": "(§5) The cells were kept in culture for no more than 30 passages.\nThe HEK293 cells were cultered in DMEM medium supplemented with 10% (v/v) fetal bovine serum as well as penicillin (100 U/ml) and streptomycin (100 μg/ml) obtained from Thermo Fisher Scientific (Darmstadt, Germany). Cells were seeded on 12-well plates coated with poly-D-lysine (Sigma-Aldrich, Taufkirchen, Germany) 48 h before the transport experiments and incubated at 37°C, 95% relative humidity, and 5% CO2. Cell lines overexpressing MATE2-K were incubated with 30 mM NH4Cl in HBSS+ (10 mM HEPES in HBSS, pH 7.4; Thermo Fisher Scientific, Darmstadt, Germany) for 30 min prior to the assay to invert the direction of transport. All cell lines were washed with 37°C HBSS+ and subsequently incubated with the pre-warmed substrate in HBSS+ at 37°C. The time points for measuring substrate uptake were 1 min for MATE2-K and 2 min for the other SLCs. […] It was assumed to be linear for the other transporters as well, based on previous experience with these expression systems. […] Subsequently, the intracellular substrate accumulation was determined using LC-MS/MS.\nas §4\nFor the screenings, cellular uptake measured in cell lines overexpressing the respective transporter was divided by the uptake measured in an empty vector control cell line to calculate normalised ratios to enable comparisons between test compounds. For studying transport kinetics, the net transport mediated by the overexpressed transporters was calculated by subtracting the cellular uptake measured in an empty vector control cell line from the uptake in cell lines overexpressing the respective transporter. […]"}, "MATE2-K": {"target": "T3, MATE2-K (Homo sapiens, UniProt Q86VL8)", "T3 construct": "expressed in transfected cells", "T3 sequence (Q86VL8 1-566 isoform Q86VL8-3)": "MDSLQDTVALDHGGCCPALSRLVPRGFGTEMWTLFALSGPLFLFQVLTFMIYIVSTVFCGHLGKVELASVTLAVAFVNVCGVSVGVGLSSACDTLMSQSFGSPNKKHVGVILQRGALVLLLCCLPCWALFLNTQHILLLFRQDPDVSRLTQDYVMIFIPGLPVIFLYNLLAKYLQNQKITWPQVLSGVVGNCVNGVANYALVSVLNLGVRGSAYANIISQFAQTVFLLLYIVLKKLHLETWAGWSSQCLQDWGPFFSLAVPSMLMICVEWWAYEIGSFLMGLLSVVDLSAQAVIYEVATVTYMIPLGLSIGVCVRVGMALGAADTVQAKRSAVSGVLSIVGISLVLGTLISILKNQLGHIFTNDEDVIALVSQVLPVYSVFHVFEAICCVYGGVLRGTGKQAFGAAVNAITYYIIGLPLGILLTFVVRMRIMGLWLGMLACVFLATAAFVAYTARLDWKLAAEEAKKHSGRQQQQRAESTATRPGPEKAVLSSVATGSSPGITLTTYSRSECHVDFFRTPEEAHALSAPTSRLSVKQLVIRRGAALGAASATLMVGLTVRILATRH", "assay": "Screening of cellular uptake at 1 µM, MATE2-K-overexpressing HEK293 cells over empty vector control cells", "type": "in vitro ADME", "settings": "1 min", "excerpt": "(§1) Koepsell and Gorbulev (University of Würzburg, Germany).\n(§2) Eighteen psychostimulants and hallucinogens were initially screened for their potential to be substrates for different polyspecific OCTs and high-affinity monoamine neurotransmitter transporters (Figure 3), as well as for the efflux transporter MATE2-K (Supplementary Figure S1)."}, "OCT1*3 (R61C)": {"target": "T4, OCT1*3 (R61C) (Homo sapiens, UniProt O15245, R61C)", "T4 sequence (O15245 1-554 R61C)": "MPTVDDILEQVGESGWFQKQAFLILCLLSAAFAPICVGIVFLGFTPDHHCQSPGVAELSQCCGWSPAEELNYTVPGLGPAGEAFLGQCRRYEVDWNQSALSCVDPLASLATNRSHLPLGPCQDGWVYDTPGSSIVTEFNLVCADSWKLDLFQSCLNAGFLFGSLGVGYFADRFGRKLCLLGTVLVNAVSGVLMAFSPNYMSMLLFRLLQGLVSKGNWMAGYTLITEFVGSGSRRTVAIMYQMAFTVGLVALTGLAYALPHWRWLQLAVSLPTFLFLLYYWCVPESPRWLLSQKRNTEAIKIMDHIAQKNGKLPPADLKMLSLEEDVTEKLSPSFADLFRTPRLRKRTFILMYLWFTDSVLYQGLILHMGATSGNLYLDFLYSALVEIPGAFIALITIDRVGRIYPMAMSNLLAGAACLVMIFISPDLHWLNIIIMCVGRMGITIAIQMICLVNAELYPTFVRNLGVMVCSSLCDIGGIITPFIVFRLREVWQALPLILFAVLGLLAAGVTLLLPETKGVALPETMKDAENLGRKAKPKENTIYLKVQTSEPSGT", "experimental": "as §5\n(§6) The HEK293 cells were cultered in DMEM medium supplemented with 10% (v/v) fetal bovine serum as well as penicillin (100 U/ml) and streptomycin (100 μg/ml) obtained from Thermo Fisher Scientific (Darmstadt, Germany). Cells were seeded on 12-well plates coated with poly-D-lysine (Sigma-Aldrich, Taufkirchen, Germany) 48 h before the transport experiments and incubated at 37°C, 95% relative humidity, and 5% CO2. Cell lines overexpressing MATE2-K were incubated with 30 mM NH4Cl in HBSS+ (10 mM HEPES in HBSS, pH 7.4; Thermo Fisher Scientific, Darmstadt, Germany) for 30 min prior to the assay to invert the direction of transport. All cell lines were washed with 37°C HBSS+ and subsequently incubated with the pre-warmed substrate in HBSS+ at 37°C. […] Subsequently, the intracellular substrate accumulation was determined using LC-MS/MS.\n(§7) Intracellular accumulation was measured by HPLC-MS/MS using a Shimadzu Nexera HPLC system with a LC-30AD pump, a SIL-30AC autosampler, a CTO-20AC column oven, and a CBM-20A controller (Shimadzu, Kyoto, Japan). […] Peak integration and quantification of the analytes was done using the Analyst software (Version 1.6.2, AB SCIEX, Darmstadt, Germany) and determined by simultaneous measurement of standard curves with known concentrations. […]"}, "OCT3": {"target": "T5, OCT3 (Homo sapiens, UniProt O75751)", "T5 construct": "Koepsell and Gorbulev (University of Würzburg); host or cells: HEK293", "T5 sequence (O75751 1-556)": "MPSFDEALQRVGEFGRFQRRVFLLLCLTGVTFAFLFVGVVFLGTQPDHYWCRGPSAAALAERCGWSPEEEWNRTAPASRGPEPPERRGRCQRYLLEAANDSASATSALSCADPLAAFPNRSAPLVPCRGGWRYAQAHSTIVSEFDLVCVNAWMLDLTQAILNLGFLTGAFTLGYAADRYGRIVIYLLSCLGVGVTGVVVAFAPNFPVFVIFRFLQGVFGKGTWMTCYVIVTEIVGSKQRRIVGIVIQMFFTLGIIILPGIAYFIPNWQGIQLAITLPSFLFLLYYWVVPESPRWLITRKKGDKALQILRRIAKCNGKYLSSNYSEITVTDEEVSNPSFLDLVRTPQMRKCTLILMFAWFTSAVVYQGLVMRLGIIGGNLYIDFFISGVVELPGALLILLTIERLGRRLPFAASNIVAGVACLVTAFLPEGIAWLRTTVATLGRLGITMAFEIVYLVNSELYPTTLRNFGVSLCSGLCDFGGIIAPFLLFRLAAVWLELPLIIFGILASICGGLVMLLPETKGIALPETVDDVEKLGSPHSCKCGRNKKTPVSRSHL", "assay": "Screening of cellular uptake at 1 µM, OCT3-overexpressing HEK293 cells over empty vector control cells", "type": "in vitro ADME", "settings": "2 min", "excerpt": "as §1, §2"}, "OCT1 [2]": {"target": "T1, OCT1", "assay": "Screening of cellular uptake at 1 µM, OCT1-overexpressing HEK293 cells over empty vector control cells", "settings": "2 min", "excerpt": "as §1, §2"}, "OCT1*1 (WT)": {"target": "T6, OCT1*1 (WT) (Homo sapiens, UniProt O15245)", "T6 sequence (O15245 1-554)": "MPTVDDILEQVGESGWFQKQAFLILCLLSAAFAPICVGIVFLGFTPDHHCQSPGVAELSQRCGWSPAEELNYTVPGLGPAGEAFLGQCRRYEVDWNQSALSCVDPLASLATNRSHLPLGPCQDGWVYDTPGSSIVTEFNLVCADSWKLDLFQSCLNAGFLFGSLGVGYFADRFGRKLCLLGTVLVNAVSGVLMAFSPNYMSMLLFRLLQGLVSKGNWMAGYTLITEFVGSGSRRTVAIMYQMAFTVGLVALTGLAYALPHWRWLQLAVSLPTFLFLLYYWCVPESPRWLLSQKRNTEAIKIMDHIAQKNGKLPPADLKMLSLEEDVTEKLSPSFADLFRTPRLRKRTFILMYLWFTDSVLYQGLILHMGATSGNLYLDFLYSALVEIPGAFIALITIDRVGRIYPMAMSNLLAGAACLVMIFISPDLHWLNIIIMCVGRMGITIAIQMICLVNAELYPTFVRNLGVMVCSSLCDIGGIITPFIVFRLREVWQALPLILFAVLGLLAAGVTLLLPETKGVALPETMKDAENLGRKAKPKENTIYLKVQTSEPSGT", "settings": "net transport, 2 min", "experimental": "as §5, §6, §7"}, "DAT": {"target": "DAT (Homo sapiens, UniProt Q01959)", "sequence (Q01959 whole entry)": "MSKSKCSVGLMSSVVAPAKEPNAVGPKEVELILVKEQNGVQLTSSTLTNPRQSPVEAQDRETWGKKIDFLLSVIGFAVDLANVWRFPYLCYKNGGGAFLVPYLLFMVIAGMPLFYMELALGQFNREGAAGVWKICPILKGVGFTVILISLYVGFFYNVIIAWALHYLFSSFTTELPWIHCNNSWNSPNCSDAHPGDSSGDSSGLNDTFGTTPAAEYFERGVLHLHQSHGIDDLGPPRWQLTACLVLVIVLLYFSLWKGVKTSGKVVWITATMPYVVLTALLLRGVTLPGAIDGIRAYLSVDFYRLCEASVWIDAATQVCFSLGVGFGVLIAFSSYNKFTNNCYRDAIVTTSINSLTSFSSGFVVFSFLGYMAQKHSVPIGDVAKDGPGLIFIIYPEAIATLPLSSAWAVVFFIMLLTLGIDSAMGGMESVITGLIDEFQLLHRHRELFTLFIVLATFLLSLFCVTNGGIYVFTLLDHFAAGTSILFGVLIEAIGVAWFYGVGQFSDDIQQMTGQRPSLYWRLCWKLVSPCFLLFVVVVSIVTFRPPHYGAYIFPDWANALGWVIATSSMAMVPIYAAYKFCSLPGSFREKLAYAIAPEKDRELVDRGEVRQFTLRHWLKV", "assay": "Screening of cellular uptake at 1 µM, DAT-overexpressing HEK293 cells over empty vector control cells", "settings": "2 min", "experimental": "as §3, §4"}, "not read [3]": {"substrate": "CNC(C)Cc1ccc(OC)cc1", "assay": "not read", "settings": "other: OCT2 A270S, pH 7.4"}, "not read [4]": {"substrate": "CN[C@@H](C)[C@H](O)c1ccccc1", "assay": "not read", "settings": "other: OCT2 A270S; pH 7.4; 37.0 °C"}, "not read [5]": {"substrate": "CN(C)CCc1c[nH]c2ccccc12", "assay": "not read", "settings": "other: OCT2 A270S, pH 7.4"}, "not read [6]": {"substrate": "CN[C@@H](C)Cc1ccccc1", "assay": "not read", "settings": "other: OCT2 A270S; pH 7.4; 37.0 °C"}},
  "note": "Where “and” joins values, the source holds several entries; their conditions need not be identical. Identical values can stand only once.",
  "data": [
    {"molecule": "C[n+]1ccc(-c2ccccc2)cc1", "note": "[MPP^+, 1-methyl-4-phenylpyridinium]", "values": [
      {"measurement": "inhibition of mescaline uptake by OCT1", "setting": "OCT1 [1]", "value": "completely inhibited"}
    ]},
    {"molecule": "COc1cc(CCN)cc(OC)c1OC", "note": "[Mescaline]", "values": [
      {"measurement": "ratio of uptake in transporter-transfected cells over empty vector control cells", "setting": "NET", "value": "not transported much"},
      {"measurement": "ratio of uptake in transporter-transfected cells over empty vector control cells", "setting": "SERT", "value": "not transported much"},
      {"measurement": "transport activity", "setting": "OCT1*6 (M420del, C88R); OCT1*6", "value": "very low transport activity"},
      {"measurement": "Km", "setting": "OCT1*6 (M420del, C88R); OCT1*6 (M420del, C88R)", "value": "Not determinable"},
      {"measurement": "vmax", "setting": "OCT1*6 (M420del, C88R); OCT1*6 (M420del, C88R)", "value": "Not determinable"},
      {"measurement": "ratio of uptake in transporter-transfected cells over empty vector control cells", "setting": "MATE2-K", "value": "not transported much"},
      {"measurement": "vmax", "setting": "OCT1*3 (R61C)", "value": "391 ± 266 pmol × mg protein^−1 × min^−1"},
      {"measurement": "ratio of uptake in transporter-transfected cells over empty vector control cells", "setting": "OCT3", "value": "not transported much"},
      {"measurement": "ratio of uptake in transporter-transfected cells over empty vector control cells", "setting": "OCT1 [2]", "value": "more than 8 fold"},
      {"measurement": "vmax", "setting": "OCT1*1 (WT)", "value": "642 pmol × mg protein^−1 × min^−1 and 642 ± 57 pmol × mg protein^−1 × min^−1"},
      {"measurement": "ratio of uptake in transporter-transfected cells over empty vector control cells", "setting": "DAT", "value": "not transported much"}
    ]},
    {"molecule": "B1", "values": [
      {"measurement": "Km", "setting": "not read [3]", "value": "14.4 (± 8.6) μM"},
      {"measurement": "Vmax", "setting": "not read [3]", "value": "172.1 (± 31.5) pmol × mg protein^-1 × min^-1"},
      {"measurement": "Km", "setting": "not read [4]", "value": "14.7 (± 4.1) μM"},
      {"measurement": "Vmax", "setting": "not read [4]", "value": "229.5 (± 18.2) pmol × mg protein^-1 × min^-1"},
      {"measurement": "Km", "setting": "not read [5]", "value": "14.2 (± 7.9) μM"},
      {"measurement": "Vmax", "setting": "not read [5]", "value": "164.2 (± 25.9) pmol × mg protein^-1 × min^-1"},
      {"measurement": "Km", "setting": "not read [6]", "value": "24.3 (± 17.0) μM"}
    ]}
  ]
}
